Format in all cases: cell-based
One test concerns the target T1, hPPARδ (Homo sapiens, UniProt Q03181).
T1 construct: corresponding to the DEF domains (structural elements of the promoter of the PPARs: D=hinge, EF=ligand fixation domain and AF2 fixation site); expressed in transfected cells; host or cells: COS-7 (monkey kidney fibroblasts)
T1 sequence (Q03181 211-439 limits assumed): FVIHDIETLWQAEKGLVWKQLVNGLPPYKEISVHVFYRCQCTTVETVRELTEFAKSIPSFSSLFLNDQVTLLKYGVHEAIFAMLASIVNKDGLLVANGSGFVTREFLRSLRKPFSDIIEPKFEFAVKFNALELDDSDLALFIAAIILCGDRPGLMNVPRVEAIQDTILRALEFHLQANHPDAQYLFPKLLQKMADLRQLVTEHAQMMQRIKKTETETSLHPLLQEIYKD
Description: Gal4-hPPARδ chimera transactivation (luciferase) in COS-7 cells. The following applies: COS-7 cells, Gal4-hPPARδ, 24 hours; for EC50: luciferase, read-out: PPARδ EC50; for Emax: relative to maximum activation obtained with GW501516, read-out: PPARδ TOP % (maximum activation). The method, then: (§1) Activation of PPARs is evaluated in vitro on a line of monkey kidney fibroblasts (COS-7) by measuring the transcriptional activity of chimeras consisting of the DNA binding domain of Gal4 transcription factor of yeast and of the ligand binding domain of the various PPARs of human origin (hPPAR).
(§2) The COS-7 cells are from ATCC and are cultivated in DMEM medium supplemented with 10% (vol/vol) of fetal calf serum, 1% of penicillin/streptomycin (Biochrom, AG), 1% of amino acids (Gibco) and 1% of sodium pyruvate (Gibco). The cells are incubated at 37° C. in a humid atmosphere containing 5% CO2.
(§3) The plasmids Gal4(RE)_TkpGL3, pGal4-hPPARα, pGal4-hPPARγ, pGal4-hPPARδ and pGal4-φ are described in the literature (Raspe E et al., 1999). The constructs pGal4-hPPARα, pGal4-hPPARγ and pGal4-hPPARδ were obtained by cloning, into the pGal4-φ vector, DNA fragments amplified by PCR corresponding to the DEF domains (structural elements of the promoter of the PPARs: D=hinge, EF=ligand fixation domain and AF2 fixation site) of the human nuclear receptors PPAα, PPARγ and PPARδ.
(§4) The adherent COS-7 cells are transfected with 40 μg of DNA per 225 cm^2 flask, with a pGal4-hPPAR/Gal4(RE)_TkpGL3 ratio of 1/10, in the presence of 10% of fetal calf serum. The cells are then detached and seeded in the absence of serum in 384-well plates (2×10^4 cells/well) then incubated for 4 hours at 37° C. The compounds are then diluted in a 96-well plate and then transferred to the 384-well plate. Activation with the test compounds is effected for a further 24 hours at 37° C. in the presence of 1% of synthetic serum Ultroser™ (Biosepra). These last 2 stages are automated by means of a Genesis Freedom 200™ station (Tecan). At the end of the experiment, the cells are lysed and the luciferase activity is determined using the Steady-Lite™ HTS (Perkin Elmer) according to the supplier's recommendations.
(§5) The test data are summarized in Table 8-1 below, which presents, for each compound, the values of maximum activation (TOP %) and the EC50 values measured for each isoform of PPAR.

The next test deals with T2, hPPARγ (Homo sapiens, UniProt P37231).
T2 construct: corresponding to the DEF domains (structural elements of the promoter of the PPARs: D=hinge, EF=ligand fixation domain and AF2 fixation site); expressed in transfected cells; host or cells: COS-7 (monkey kidney fibroblasts)
T2 sequence (P37231 238-503 limits assumed): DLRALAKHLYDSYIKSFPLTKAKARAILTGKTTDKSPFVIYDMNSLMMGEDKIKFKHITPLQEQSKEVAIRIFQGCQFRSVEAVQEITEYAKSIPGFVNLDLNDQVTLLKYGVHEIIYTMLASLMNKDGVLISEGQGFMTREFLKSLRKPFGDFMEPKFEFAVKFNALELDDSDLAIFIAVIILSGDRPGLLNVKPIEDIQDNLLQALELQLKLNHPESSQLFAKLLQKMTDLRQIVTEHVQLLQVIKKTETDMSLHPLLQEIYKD
The test can be described thus: Gal4-hPPARγ chimera transactivation (luciferase) in COS-7 cells. To be noted: 24 hours; for EC50: luciferase, read-out: PPARγ EC50; for Emax: relative to maximum activation obtained with rosiglitazone, read-out: PPARγ TOP % (maximum activation). The method, then: as §1, §2, §3, §4, §5

Another test addresses T3, hPPARα (Homo sapiens, UniProt Q07869).
T3 construct: corresponding to the DEF domains (structural elements of the promoter of the PPARs: D=hinge, EF=ligand fixation domain and AF2 fixation site); expressed in transfected cells; host or cells: COS-7 (monkey kidney fibroblasts)
T3 sequence (Q07869 239-466 limits assumed): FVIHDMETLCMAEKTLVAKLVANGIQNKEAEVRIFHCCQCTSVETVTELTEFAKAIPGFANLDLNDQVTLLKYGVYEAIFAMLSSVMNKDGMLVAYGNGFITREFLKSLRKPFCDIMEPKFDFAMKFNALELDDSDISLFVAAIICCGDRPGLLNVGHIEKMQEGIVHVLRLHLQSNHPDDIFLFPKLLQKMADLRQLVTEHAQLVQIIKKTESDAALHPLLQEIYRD
Description: Gal4-hPPARα chimera transactivation (luciferase) in COS-7 cells. The following applies: COS-7 cells, Gal4-hPPARα, 24 hours; for EC50: luciferase, read-out: PPARα EC50; for Emax: relative to maximum activation obtained with fenofibric acid, read-out: PPARα TOP % (maximum activation). On the procedure: as §1, §2, §3, §4
The test data are summarized in Table 8-1 below, which presents, for each compound, the values of maximum activation (TOP %) and the EC50 values measured for each isoform of PPAR. The values of maximum activation are expressed in percentages relative to the maximum activations obtained with reference agonists: fenofibric acid for PPARα, rosiglitazone for PPARγ and 2-methyl-4-((4-methyl-2-(4-trifluoromethylphenyl)-1,3-thiazol-5-yl)-methylsulfanyl)phenoxyacetic acid (also called GW501516) for PPARδ.

Broadly, the EC50 is the concentration giving half of the maximal effect. As for `CCSc1nc(-c2ccccc2)ccc1CNc1ccc(CCC(=O)O)cc1` [Cpd 38, 3-(4-(((2-(ethylthio)-6-phenylpyridin-3-yl)methyl)amino)phenyl)propanoic acid], the EC50 at hPPARδ stood at 6.78 µM; on hPPARγ it was 7.6 µM; at hPPARα it was 10.8 µM. For the same compound, the Emax on hPPARδ turned out to be 64.5%; at hPPARγ it was 45.4%; on hPPARα, 36.2%.
With `COc1nc(-c2ccc(-c3ccccc3)cc2)ccc1CNc1ccc(CCC(=O)O)cc1` [Cpd 39, 3-(4-(((2-methoxy-6-(parabiphenyl)pyridin-3-yl)methyl)amino)phenyl)-propanoic acid], the EC50 at hPPARδ was found to be 1.39 µM; at hPPARγ it was 1.94 µM; on hPPARα it was 0.175 µM. Further, the Emax at hPPARδ came to 95.3%; on hPPARγ, 100%; on hPPARα, 52.2%.
Consider `COc1nc(-c2cccc(C(F)(F)F)c2)ccc1CNc1ccc(CCC(=O)O)cc1` [Cpd 40, 3-(4-(((2-methoxy-6-(3-(trifluoromethyl)phenyl)pyridin-3-yl)methyl)amino)-phenyl)propanoic acid], for which the half-maximal effective concentration (EC50) was 0.08 µM at hPPARδ, 0.955 µM on hPPARγ and 0.165 µM at hPPARα. Also, the Emax at hPPARδ amounted to 107%; on hPPARγ, 87.2%; at hPPARα it was 66.7%.
For the compound `COc1ncc(-c2ccccc2)cc1CNc1ccc(CCC(=O)O)cc1` [Cpd 41, 3-(4-(((2-methoxy-5-phenylpyridin-3-yl)methyl)amino)phenyl)propanoic acid], the EC50 came out at 17 µM at hPPARδ, 27.2 µM at hPPARγ and 7.36 µM at hPPARα. The Emax at hPPARδ turned out to be 107%; at hPPARγ it was 72.1%; on hPPARα, 35.9%.
`COc1nc(-c2ccccc2)ccc1CNc1ccc(C(CC(=O)O)c2ccccc2)cc1` (stereo not drawn) [Cpd 42, 3-(4-((2(-methoxy-6-phenylpyridin-3-yl)methyl)amino)phenyl)-3-phenyl-propanoic acid]: the values for the EC50 on hPPARδ, on hPPARγ and on hPPARα were 3.04 µM, 4.36 µM and 5.66 µM, respectively. The results for the Emax at hPPARδ, at hPPARγ and at hPPARα were 86.5%, 65.8% and 16.5%, respectively.
As for `COc1cc(NCc2ccc(-c3ccccc3)nc2OC)ccc1CCC(=O)O` [Cpd 43, 3-(2-methoxy-4-(((2-methoxy-6-phenylpyridin-3-yl)methyl)amino)-phenyl)-propanoic acid], the EC50 was determined as 1.51 µM on hPPARδ, 0.402 µM at hPPARγ and 1.44 µM on hPPARα. Besides, the Emax at hPPARδ was found to be 77.9%; on hPPARγ, 85.6%; on hPPARα it was 44.9%.
As to `COc1cc(CCC(=O)O)ccc1NCc1ccc(-c2ccccc2)nc1OC` [Cpd 44, 3-(3-methoxy-4-(((2-methoxy-6-phenylpyridin-3-yl)methyl)amino)-phenyl)-propanoic acid], the figures for the EC50 at hPPARδ, at hPPARγ and on hPPARα were 2.38 µM, 2.64 µM and 0.929 µM, respectively. The Emax on hPPARδ was determined as 80.6%; on hPPARγ, 72.2%; at hPPARα, 55.5%.
Take `COc1nc(-c2ccccc2)ccc1CNc1ccc(C(C)CC(=O)O)cc1` (stereo not drawn) [Cpd 45, 3-(4-(((2-methoxy-6-phenylpyridin-3-yl)methyl)amino)phenyl)butanoic acid]: the EC50 on hPPARδ was 3.36 µM; at hPPARγ, 2.39 µM; at hPPARα, 6.43 µM. Moreover, the Emax was 97.3% on hPPARδ, 79.4% at hPPARγ and 43.2% on hPPARα.
With `COc1ncc(-c2ccc(C(F)(F)F)cc2)cc1CNc1ccc(CCC(=O)O)cc1` [Cpd 46, 3-(4-(((2-methoxy-5-(4-(trifluoromethyl)phenyl)pyridin-3-yl)methyl)amino)phenyl)propanoic acid], the figures for the EC50 at hPPARδ, at hPPARγ and at hPPARα were 0.028 µM, 1.94 µM and 0.622 µM, respectively. Besides, the results for the Emax on hPPARδ, on hPPARγ and at hPPARα were 107%, 69.4% and 60%, respectively.
As for `COc1ncc(-c2cccc(C(F)(F)F)c2)cc1CNc1ccc(CCC(=O)O)cc1` [Cpd 47, 3-(4-(((2-methoxy-5-(3-(trifluoromethyl)phenyl)pyridin-3-yl)methyl)amino)-phenyl)propanoic acid], the EC50 at hPPARδ came to 1.91 µM; at hPPARγ it was 1.08 µM; on hPPARα it was 1.9 µM. For the same compound, the Emax on hPPARδ amounted to 79.2%; on hPPARγ it was 85%; on hPPARα it was 58.6%.
Take `COc1nc(OC)c(-c2ccccc2)cc1CNc1ccc(CCC(=O)O)cc1` [Cpd 48, 3-(4-(((2,6-dimethoxy-5-phenylpyridin-3-yl)methyl)amino)phenyl)propanoic acid]: the EC50 on hPPARδ was 16.7 µM; on hPPARγ it was 9.57 µM; on hPPARα, 26.4 µM. Also, the values for the Emax at hPPARδ, at hPPARγ and on hPPARα were 68.1%, 58.2% and 35.9%, respectively.
Take `COc1ncc(-c2ccc(Cl)cc2)cc1CNc1ccc(CCC(=O)O)cc1` [Cpd 49, 3-(4-(((5-(4-chlorophenyl)-2-methoxypyridin-3-yl)methyl)amino)phenyl)-propanoic acid]: the EC50 on hPPARδ amounted to 0.408 µM; on hPPARγ, 4.04 µM; on hPPARα, 3.62 µM. Moreover, the figures for the Emax on hPPARδ, at hPPARγ and at hPPARα were 123%, 73.2% and 51.1%, respectively.
In the case of `COc1ncc(-c2ccc3ccccc3c2)cc1CNc1ccc(CCC(=O)O)cc1` [Cpd 50, 3-(4-(((2-methoxy-5-(naphthalen-2-yl)pyridin-3-yl)methyl)amino)phenyl)-propanoic acid], the results for the EC50 at hPPARδ, at hPPARγ and at hPPARα were 0.77 µM, 1.92 µM and 0.771 µM, respectively. The Emax on hPPARδ stood at 103%; at hPPARγ it was 63.7%; on hPPARα, 46.8%.
In the case of `CCOc1nc(-c2ccccc2)ccc1CNc1ccc(CCC(=O)O)cc1` [Cpd 51, 3-(4-(((2-ethoxy-6-phenylpyridin-3-yl)methyl)amino)phenyl)propanoic acid], the EC50 at hPPARδ worked out at 1.93 µM; at hPPARγ, 2.23 µM; at hPPARα, 1.29 µM. Moreover, the Emax worked out at 93.1% on hPPARδ, 70.9% on hPPARγ and 50.5% at hPPARα.
With `CC#CC(CC(=O)O)c1ccc(OCc2cc(-c3ccccc3)cnc2OC)cc1` (stereo not drawn) [Cpd 52, 3-(4-((2-methoxy-5-phenylpyridin-3-yl)methoxy)phenyl)hex-4-ynoic acid], the results for the EC50 at hPPARδ, at hPPARγ and at hPPARα were 19.8 µM, 2.76 µM and 13.7 µM, respectively. In addition, the Emax on hPPARδ worked out at 16.1%; at hPPARγ, 54.8%; at hPPARα, 34.3%.

Source of the values: patent US8461183B2, “PPAR agonist compounds, preparation and uses” (Genfit, priority 2008, dated 2013).
